Entries after “also recorded” stand apart in the source; their conditions may differ.
Tests used:
Format in all cases: cell-based, human
VCaP cells [1] = experiment: Cell cycle analysis using flow cytometry (propidium iodide)
Description: 4×10^5 VCaP cells were treated with 1 μM of IGF mAb_1 and 10 μM of MDV-3100, and the combination of both agents, and incubated in 6-well plates at 37° C. for 24 h, 48 h and 72 h. Subsequently, the supernatant was transferred to FACS tubes, adherent cells were detached with trypsin and collected in the respective FACS tubes. After centrifugation, the medium was discarded and the cell pellet was fixed in ice-cold 70% ethanol for a minimum of 2 h at 4° C. After removing the ethanol entirely, fixed cells were stained with propidium iodide (10 μg/ml; Sigma; P4864-10 mL) in a hypotonic buffer solution (0.1% sodium citrate, 0.1% (v/v) triton X-100, 100 μg/ml DNase-free RNase A) and incubated in the dark at room temperature for 30 minutes. Cells were analyzed using the Becton Dickinson FACS Canto II Flow cytometer and data was evaluated with the FACS Diva software.

VCaP cells [2] = experiment: Analysis of cellular doubling time; details: 10 μM MDV-3100, compared to untreated controls
Description: 3×10^5 cells/well VCaP cells were seeded in 2 mL cell culture medium per well. 24 hrs post seeding the cell culture medium was removed and replaced with DMEM+10% FCS without R1881. 24 hr following the medium change the pre-treatment wells were harvested and counted with the Beckman Coulter™ Vi-CELL XR 2.03, and 10 μM of MDV-3100 was added to the remaining cells. Four times every 24 hr VCaP cell number was determined in 3 wells for each time point. The mean value was calculated from these triplicates. To determine the generation time, following formula is used: […]

VCaP cells [3] = experiment: Assessment of caspase 3 activity (apoptosis induction); details: 10 μM MDV-3100 and/or 1 μM mAb, up to 96 hours
Description: To acquire live cell images of cells undergoing caspase-3/7 mediated apoptosis upon treatment with different concentrations of MDV-3100, IGF mAb_1, and the combination of both agents, the CellPlayer™ 96-Well Kinetic Caspase-3/7 Reagent (Essen BioScience; #4440) was used. 50000 VCaP cells/100 μl/well were seeded and treated on the next day with the respective concentrations of both agents in growth medium in the absence of R1881. The Caspase-3/7 reagent was diluted to a final concentration of 5 μM in 100 μl per well of growth medium and added to the medium. The plate was placed within a microplate tray into the IncuCyte™ 2011A and 3 images per well were acquired every 4 hours for 7 days using the phase contrast and fluorescence channels.

DUCaP cells = experiment: 2D cell proliferation assay (CellTiter-Glo); details: 10% FCS-containing growth medium, 5 days, single agent or combination
Description: (§1) The following method was used to determine the inhibitory effect of IGF ligand-neutralizing mAbs and androgen signaling inhibitors on the growth of prostate cancer cell lines. Assays were performed in cell growth medium containing 10% serum.
(§2) Adherent cells were detached with trypsin/EDTA solution (GIBCO, #043-9031 FU), resuspended in growth medium, centrifuged, resuspended in assay medium (supplemented with 10% heat inactivated FCS and 2 mM L-glutamine) and diluted to 5,000-40,000 cells per mL. 100 μL/well cell suspension was added to each well of a sterile flat-bottom white 96-well plate (PerkinElmer, #6005280) and plates were incubated overnight in a humidified incubator set at +37° C. and 5% CO2. On the next day supernatants were aspirated and 35 μL/well assay medium was added to all wells.
(§3) Serial dilutions of IGF mAb_1 and mAb_2 (1 μM highest concentration), MDV-3100 (10 μM highest concentration), abiraterone acetate (100 μM highest concentration) were prepared on a separate plate in assay medium (no growth factors or hormones supplemented). All agents were tested as single agents or in combination. All samples were tested in triplicate wells (100 μL/well assay). Plates were incubated for 5 days in a humidified incubator at +37° C. and 5% CO2. After this incubation period, CellTiter-Glo buffer, substrate and test plates were equilibrated to RT. CellTiter-Glo is a bioluminescent assay (Promega, #G7571) designed to determine the number of viable cells in culture, in which the generation of a luminescent signal is proportional to the amount of ATP present in cells. 100 μL of freshly mixed CellTiter-Glo reagent was added to each well. After 2 min on an orbital shaker (MTS 2/4, IKA) and 10 min incubation at RT, luminescence was recorded (luminescence reader (Genios Pro, Tecan or Victor X4, Perkin Elmer), integration time 1 sec).

VCaP cells [4] = experiment: 2D cell proliferation assay (CellTiter-Glo); details: 10% FCS-containing growth medium, 5 days, single agent or combination
Description: as §1, §2, §3

MDA PCa 2b cells = experiment: 2D cell proliferation assay (CellTiter-Glo); details: 10% FCS-containing growth medium, 5 days, single agent or combination
Description: as §1, §2, §3

[5] = system: IGF-1R, AR, PTEN levels and AKT-Ser473 phosphorylation in VCaP, MDA PCa 2b and DUCaP cells; experiment: Western blot protein analysis after 24 hours of treatment; details: 24 hours treatment
Description: One×10^6 and 4×10^6 cells were plated in 6-well plates and 10 cm dishes, respectively, in medium containing 10% heat-inactivated FCS and after over night incubation the cells were treated with 1 μM of MDV-3100 and 100 nM of IGF mAb_1 or a combination of antibody and AR signaling inhibitor. After 24 hours the cells were lyzed on the plates, total protein was isolated and protein concentration was determined by Bradford assay. Cell lysates were snap frozen and stored at −80° C.
(§4) Western blotting was performed loading 30-50 μg of total protein lysates on a 4-12% Bis-Tris PAG (Bio Rad) and blotting with the Bio Rad trans-Blot® Turbo system using a PVDF membrane. […] Cell cycle regulators and markers of proliferation and apoptosis were analyzed using the following antibodies: p21 Waf1/Cip1 (12D1; #2947, Cell Signaling; 1:1000), CDK2 (78B2; #2546, Cell Signaling; 1:1000), Cyclin E (C-19; sc-198, Santa Cruz; 1:1000), PCNA (#2586, Cell Signaling; 1:2000), and PARP (#9542, Cell Signaling; 1:1000).
(§5) Antibody dilutions were prepared in 5% BSA or 5% non-fat dry milk in TBS-0.5% Tween20 (TBS-T). Following washes in TBS-T membranes were incubated with a polyclonal HRP-conjugated goat anti-rabbit secondary antibody (DAKO, #P0448) for 1 hour and after further washes in TBS-T antibody reactivity was detected by means of ECL/Super ECL (GE Healthcare) and exposure on ImageQuant LAS4000. […]

VCaP cells [6] = experiment: Thymidine incorporation assay; details: 96 hours, 10 μM MDV-3100 and/or 1 μM IGF mAb_1, compared to untreated controls
Description: VCaP cells were treated with 1 μM of IGF mAb_1 and 10 μM of MDV-3100 and the combination of both agents and incubated as triplicates in flat-bottom 96-well plates for 96 hours at a density of 5×10^4 cells per well, in the absence of R1881. For the last 24 hours of incubation, ^3H-thymidine (0.4 μCi/well; PerkinElmer, NET355001 MC) was added. Afterwards, the plates were frozen and incubated at −20° C. for 24 h. For harvesting, the plates were thawed and 40 μL Trypsin was added to each well to detach the cell fragments. The suspension was transferred to filter plates. The plates were then washed three times with distilled water and dried at 60° C. for 3 h. 25 μL per well Microscint were added and the proliferation rate was determined by measuring thymidine incorporation (CPM; counts per minute) using a liquid scintillation counter (1450 Microbeta Wallac Trilux, Perkin-Elmer).

[7] = system: AKT phosphorylation, PARP cleavage, p21, CDK2, Cyclin E, PCNA in VCaP cells; experiment: Western blot time course of AKT phosphorylation, apoptosis and cell cycle regulators
Description: One×10^6 and 4×10^6 cells were plated in 6-well plates and 10 cm dishes, respectively, in medium containing 10% […] and AR signaling inhibitor. […] Cell lysates were snap frozen and stored at −80° C.
as §4, §5

VCaP cells [8] = experiment: 3D soft agar cell proliferation assay; details: single agent or combination
Description: IGF mAb_2 was used for the treatment of VCaP cells in FIG. 2B. FIG. 2C (IGF mAb_1) and FIG. 2D (IGF mAb_2) show the results of MDA PCa 2b cells. […] In a 3D soft agar cell proliferation assay (FIG. 2G), VCaP cells were treated with abiraterone acetate and IGF mAb_2.

Compound	G1/G0 population (VCaP cells [1]; 10 μM MDV-3100, compared to untreated controls)	sub-G1 apoptotic cell population (VCaP cells [1]; 24 h, 48 h and 72 h, 10 μM MDV-3100 and/or 1 μM mAb)	cellular doubling time (generation time) (VCaP cells [2])	induction of caspase 3 activity / apoptosis (in words) (VCaP cells [3])	effect on 2D cell proliferation (in words) (DUCaP cells)	effect on 2D cell proliferation (in words) (VCaP cells [4])	effect on 2D cell proliferation (in words) (MDA PCa 2b cells)	AR protein levels [5]	IGF-1R levels [5]	reduction of proliferative activity (thymidine incorporation) (VCaP cells [6])	p21 levels ([7]; 10 μM MDV-3100, at 8 and 24 hours)	PARP cleavage ([7]; 10 μM MDV-3100 and/or 1 μM IGF mAb_1, 8 h, 24 h, 48 h and 72 h)	effect on 3D cell proliferation (in words) (VCaP cells [8])
CNC(=O)c1ccc(N2C(=S)N(c3ccc(C#N)c(C(F)(F)F)c3)C(=O)C2(C)C)cc1F [MDV-3100, 4-{3-[4-cyano-3-(trifluoromethyl)phenyl]-5,5-dimethyl-4-oxo-2-sulfanylideneimidazolidin-1-yl}-2-fluoro-N-methylbenzamide]	increased	did not induce; also recorded: does not change	prolonged cellular doubling time	did not induce caspase 3 activity	inhibition of cell proliferation	inhibition of cell proliferation	inhibition of cell proliferation	slightly increased	slightly decreased	approximately 50%	increased	did not induce	–
CC(=O)O[C@H]1CC[C@@]2(C)C(=CC[C@@H]3[C@@H]2CC[C@]2(C)C(c4cccnc4)=CC[C@@H]32)C1 [abiraterone acetate]	–	–	–	–	inhibition of cell proliferation at higher concentrations	inhibition of cell proliferation at higher concentrations	inhibition of cell proliferation at higher concentrations	–	–	–	–	–	inhibition of cell proliferation at higher concentrations

— patent US10377828B2, “Combination therapy for neoplasia treatment” (Boehringer Ingelheim International GmbH, priority 2013, dated 2019)
